Columns and labels:
Assay in all cases: relative viability vs DMSO control (72 h) (fraction); higher = more viable cells
KHOS-240S = tested on: KHOS-240S
Method in brief: (§1)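 Sarcoma cell lines went into 384-well plates at densities chosen to reach 80–90% confluence. After 24 h, each well received 2.5 µl of serially diluted compound, with source plates running from 10 mM to 0.0002 mM, and the plates were kept 72 h at 37 °C, 5% CO2, alongside 0.1% DMSO vehicle and a 5 µM positive control. Relative viability was derived from ATPLite readings as percent growth and averaged over up to triplicate wells. The data were then rescaled so that 1 stands for full and 0 for none.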

SYO-1 = tested on: SYO-1
Method in brief: as §1

MES-SA = tested on: MES-SA
Method in brief: as §1

SW1353 = tested on: SW1353
Method in brief: as §1

RD = tested on: RD
Method in brief: as §1

CCN(c1cc(-c2ccc(CN3CCOCC3)cc2)cc(C(=O)NCc2c(C)cc(C)[nH]c2=O)c1C)C1CCOCC1 [Tazemetostat]
relative viability
Details	KHOS-240S	MES-SA	RD	SW1353	SYO-1
0.00017 µM	1.02	1	0.988	1.08	1.03
0.00051 µM	1.031	0.988	1	1.04	1
0.00152 µM	1.03	0.9899	1.04	1.065	1.02
0.00457 µM	1.03	0.986	1.04	1.08	1
0.01372 µM	1.01	0.977	1.05	1.05	0.994
0.04115 µM	1.03	0.998	1.03	1.09	1.006
0.1235 µM	1.01	1	1.06	1.05	1
0.3704 µM	0.9861	0.942	1.03	1.04	0.95
1.111 µM	0.9866	0.933	1.04	1.02	0.953
3.333 µM	0.975	0.926	1.04	1.02	0.915
10 µM	0.925	0.874	1.03	0.991	0.873

CCCS(=O)(=O)N[C@H]1C[C@@H](N(C)c2ncnc3[nH]ccc23)C1 [Abrocitinib]
relative viability
Details	KHOS-240S	MES-SA	RD	SW1353	SYO-1
0.00017 µM	1.03	0.929	1.06	0.96	0.984
0.00051 µM	1.03	0.904	1.12	0.966	0.951
0.00152 µM	1.03	0.9	1.11	0.929	0.956
0.00457 µM	1.04	0.9254	1.09	0.96	0.972
0.01372 µM	1.04	0.917	1.09	1	0.952
0.04115 µM	1.04	0.932	1.11	0.9632	0.957
0.1235 µM	0.9912	0.922	1.09	0.977	0.974
0.3704 µM	1.02	0.942	1.08	0.999	0.959
1.111 µM	1.03	0.912	1.15	0.958	0.993
3.333 µM	1.05	0.933	1.1	0.991	0.994
10 µM	0.988	0.893	1.09	0.996	1.01

Cc1nc(Nc2ncc(C(=O)Nc3c(C)cccc3Cl)s2)cc(N2CCN(CCO)CC2)n1 [Dasatinib]
relative viability
Details	KHOS-240S	MES-SA	RD	SW1353	SYO-1
0.00017 µM	1.06	0.935	1.12	0.979	0.917
0.00051 µM	1.04	0.919	1.12	0.982	0.923
0.00152 µM	1.01	0.903	1.09	0.996	0.91
0.00457 µM	0.957	0.91	1.02	0.956	0.865
0.01372 µM	0.816	0.879	0.953	0.888	0.779
0.04115 µM	0.708	0.825	0.775	0.704	0.704
0.1235 µM	0.494	0.799	0.536	0.59	0.645
0.3704 µM	0.337	0.791	0.458	0.46	0.573
1.111 µM	0.279	0.8428	0.426	0.4271	0.528
3.333 µM	0.25	0.728	0.366	0.411	0.415
10 µM	0.198	0.258	0.267	0.372	0.188

C[C@@H](Oc1cc(-c2cnn(C3CCNCC3)c2)cnc1N)c1c(Cl)ccc(F)c1Cl [Crizotinib]
relative viability
Details	KHOS-240S	MES-SA	RD	SW1353	SYO-1
0.00017 µM	1.04	0.943	1.08	1	0.957
0.00051 µM	1.05	0.935	1.07	1	0.982
0.00152 µM	1.06	0.943	1.106	1.018	1
0.00457 µM	1.05	0.944	1.09	0.987	0.99
0.01372 µM	1.05	0.946	1.1	1.02	0.973
0.04115 µM	1.05	0.969	1.1	0.996	0.944
0.1235 µM	1.04	0.938	1.09	1.03	0.855
0.3704 µM	0.992	0.536	0.88	1.01	0.655
1.111 µM	0.771	0.434	0.626	0.999	0.346
3.333 µM	0.566	0.27	0.441	0.679	0.13
10 µM	0.0657	-0.000833	0.00437	0.00907	-0.00763

CN(C)C[C@@H]1CCn2cc(c3ccccc32)C2=C(C(=O)NC2=O)c2cn(c3ccccc23)CCO1 [Ruboxistaurin]
relative viability
Details	KHOS-240S	MES-SA	RD	SW1353	SYO-1
0.00017 µM	1.04	0.918	1.09	1.02	0.962
0.00051 µM	1.05	0.909	1.09	1.01	0.9554
0.00152 µM	1.03	0.9276	1.11	0.983	0.962
0.00457 µM	1.04	0.9006	1.12	0.99	0.941
0.01372 µM	1.02	0.923	1.11	0.975	0.931
0.04115 µM	1.02	0.91	1.1	0.994	0.933
0.1235 µM	1.03	0.898	1.12	0.961	0.899
0.3704 µM	1.014	0.887	1.1	0.977	0.849
1.111 µM	1.04	0.84	1.127	0.894	0.79
3.333 µM	1.03	0.7551	1.08	0.827	0.347
10 µM	0.715	0.428	0.857	0.252	-0.0266

Cc1ccc(NC(=O)c2ccc(CN3CCN(C)CC3)cc2)cc1Nc1nccc(-c2cccnc2)n1 [Imatinib]
relative viability
Details	KHOS-240S	MES-SA	RD	SW1353	SYO-1
0.00017 µM	0.98	0.966	0.964	1.01	0.98
0.00051 µM	0.977	0.988	0.974	0.988	0.974
0.00152 µM	0.9747	0.992	0.952	0.986	0.965
0.00457 µM	0.98	0.9838	0.967	1.04	0.964
0.01372 µM	0.97	0.985	0.976	1.01	0.948
0.04115 µM	0.971	0.9942	0.983	1.02	0.907
0.1235 µM	0.953	0.997	0.95	0.991	0.804
0.3704 µM	0.929	1.02	0.943	1	0.744
1.111 µM	0.895	1.01	1.01	1.06	0.704
3.333 µM	0.794	0.905	1	1.1	0.63
10 µM	0.542	0.658	0.596	0.762	0.155

COc1cc(Nc2c(C#N)cnc3cc(OCCCN4CCN(C)CC4)c(OC)cc23)c(Cl)cc1Cl [Bosutinib]
relative viability
Details	KHOS-240S	MES-SA	RD	SW1353	SYO-1
0.00017 µM	1.07	1.018	1.11	1.11	1.04
0.00051 µM	1.08	0.992	1.11	1.11	1.03
0.00152 µM	1.08	1.01	1.12	1.12	1.02
0.00457 µM	1.1	0.979	1.11	1.09	1.04
0.01372 µM	1.08	0.989	1.11	1.1	1.01
0.04115 µM	1.06	0.993	1.14	1.13	0.989
0.1235 µM	1.04	0.994	1.15	1.09	0.966
0.3704 µM	0.962	0.926	1.12	1.04	0.966
1.111 µM	0.734	0.675	0.88	0.896	0.868
3.333 µM	0.49	0.432	0.665	0.673	0.641
10 µM	0.0326	0.228	0.0202	0.0287	-0.0056

From the supplement of paper PMC10883282
